These results are taken from patent publication US20110162437A1, “Biomarker for Mitochondrial Toxicity Associated with Phospholipidosis” (priority 2006, published 2011).

Several values for one entry are separate records, joined by “and”; a condition that tells them apart may be missing. Identical values can stand only once. Entries after “also recorded” stand apart in the source; their conditions may differ.

One series concerns Male Wistar rats. In words: PAG measurement by 1H NMR in urine after single oral dose, ratio versus time-matched controls. In kind it is in vivo, rat. Particulars: for PAG: urine, individual animals. The method, then: (§1) All animals received (human) care as specified by Swiss law and in accordance with the “Guide for the care and use of laboratory animals” published by the NIH. Male Wistar rats (5 animals/dose-group) were purchased from RCC (Füllingsdorf, Switzerland) and housed individually. Treated animals were dosed orally by gavage with several doses of test compounds (Table 1). Control animals received the same volume of vehicle as placebo. Necropsy was performed 48 (subgroup A) or 168 hours (subgroup B) after a single administration (=Day 1) and urine samples were collected in metabolism cages at 0 to 4° C. (automatically refrigerated by a Tecniplast sampling/cooling unit (RACK B940, Tecniplast, USA)) at the intervals given in the sampling schedule in Table 2 into labelled sample tubes containing 1 ml of an aqueous Na-azide (1%) solution. Before aliquoting, urine volumes were determined.
Urine samples were taken on day -7,-2,-1, 1, 2, 3, 4, 5, 6 and 7, whereby Day 1 was the Day of dosing.
Immediately after reaching the end of the sampling period, the volume was determined and the samples were centrifuged at 3000 u/min (500 g) for 10 minutes.
Aliquot: Approximately 2 ml was transferred in 1.8 ml cryvials, round bottom, freestanding, with screw caps and septum for NMR-spectroscopic examinations (Bruker Analytik GmbH, Rheinstetten, Germany, Bruker part No. 85372). The vials were stored at −80° C.
Urine samples were prepared and measured on a Bruker 500 MHz NMR instrument according to the COMET 1H-NMR protocol (Keun, H. C et al., (2002) Physiological variation and analytical reproducibility in metabonomic urinalysis. Chem. Res. Tox. 15, 1380-1386) and as described above. In total 467 urine samples were analyzed. After measurement, all data were processed by XWINMR 3.5.6 (Bruker Biospin AG, Fällanden). Representative spectra are depicted in FIG. 2. Phase correction and baseline correction were performed with NMRPROC 0.3 (T. Ebbels, H. Keun; Imperial College). Spectral data were binned using AMIX 2.6 (Bruker Biospin AG, Fällanden) following the COMET Data Processing & Pattern Recognition protocol (Keun, H. C., et al., (2002) Physiological variation and analytical reproducibility in metabonomic urinalysis. Chem. Res. Tox. 15, 1380-1386). QC check procedures (Dieterle F., Ross A., Schlotterbeck G., Senn H. (2006) Probabilistic Quotient Normalization as Robust Method to Account for Dilution of Complex Biological Mixtures. Application in 1H NMR Metabonomics. Anal. Chem. 78, 4281-4290) were applied on binned data to detect outliers. In total 7 outliers were detected and removed from further analysis. All data were mean-centered and normalized using the probabilistic quotient normalization (Dieterle F., Ross A., Schlotterbeck G., Senn H. (2006) Probabilistic Quotient Normalization as Robust Method to Account for Dilution of Complex Biological Mixtures. Application in 1H NMR Metabonomics. Anal. Chem. 78, 4281-4290.). All binned data were annotated and transferred to the ANT (ANT: Affymetrix NMR Toxicology Data System) database.
The exact PAG quantification was performed according to following procedure: • Baseline subtraction of spectra • Integration of PAG peaks ((=7.47 ppm, (=7.39 ppm, (=3.79 ppm, and (=3.7 ppm respectively) and Citrate region ((=2.66-2.74 ppm and 2.50-2.58 ppm). • Quotient normalization (Dieterle F., Ross A., Schlotterbeck G., Senn H. (2006) Probabilistic Quotient Normalization as Robust Method to Account for Dilution of Complex Biological Mixtures. Application in 1H NMR Metabonomics. Anal. Chem. 78, 4281-4290.) • Divide each of the PAG bins by its average (all spectra) to correct for different relaxation times and number of protons • Calculate median out of the PAG bins • Calculate ratio versus time-matched controls

A further series has as its system lymphocytes. In words: Electron microscopic examination of buffy coat lymphocytes for lamellar bodies (determination of phospholipidosis). Type of series: in vivo, rat. The conditions noted are these: for lymphocytes %, pos. / lymphocytes positive (with lamellar bodies): individual rats, 1000 mg/kg/day. As for the experimental part:
as §1
Blood samples (as much as possible) were withdrawn from all animals at necropsy at about 48 hours after dosing (subgroup A) and about 168 hours after dosing (subgroup B)
The samples were collected from the abdominal aorta or by cardiac puncture under terminal anaesthesia (CO2). A total of at least 2 ml blood was required to gain buffy coat (buffy coat=leukocyte band) samples.
After fixation in 2.5% glutaraldehyde, the buffy coat samples from all animals were embedded in Epon. […] All thin sections were examined ultrastructurally. If possible, 200 lymphocytes per sample were examined for lamellar bodies. The results per sample include the total number of lymphocytes examined, the total number of positive lymphocytes (i.e. with lamellar bodies), the percentage of positive lymphocytes and a grading of severity of phospholipidosis (criteria see table 4)

A short description of the next series: basic pKa value. In kind it is physicochemical.
Series [1] is described as follows: potential to induce phospholipidosis judged from amphiphilicity and basic pKa. The conditions noted are these: from reduced amphiphilicity and basic pKa. The text has this: The structural difference between both molecules can be mainly characterized by the exchange of the piperazine against a morpholine moiety in compound 2.
The mark [2] stands for this setting: necropsy 48 hours after application.
The mark [3] stands for this setting: necropsy 168 hours after application.

On to `CN(C(=O)C(C)(C)c1cc(C(F)(F)F)cc(C(F)(F)F)c1)c1cnc(N2CCOCC2)cc1-c1ccccc1Cl` [Compound 2, 2-(3,5-Bis-trifluoromethyl-phenyl)-N-[4-(2-chloro-phenyl)-6-morpholin-4-yl-pyridin-3-yl]-N-methyl-isobutyramide], for which the PAG in the series on Male Wistar rats (High_Dose group, Time 0 (within 8 hours before treatment)) was 0.3191 and 0.4082 and 0.1757 and 0.4688 and 0.3904 and 0.3807 and 0.4568 and 0.5015 and 0.3805 and 0.4405; with Male Wistar rats (High_Dose group, Time 8 (within 8 hours after treatment)) it was 0.6552 and 0.2654 and 0.3244 and 0.3661 and 0.5090 and 0.8253 and 0.6223 and 0.6794 and 0.5865 and 0.5553; in the series with Male Wistar rats (High_Dose group, Time 24 (within 8 to 24 hours after treatment)) it was 0.4048 and 0.3363 and 0.1408 and 0.3750 and 0.4284 and 0.6538 and 0.4408 and 0.2588 and 0.4111 and 0.3592; with Male Wistar rats (High_Dose group, Time −16 (1 day before treatment)), 0.6280 and 0.3499 and 0.4531 and 0.5078 and 0.6008 and 0.3961 and 0.6035 and 0.5396 and 0.6968; in the series with Male Wistar rats (High_Dose group, Time −40 (2 days before treatment)) it was 0.5320 and 0.2568 and 0.4805 and 0.4717 and 0.4514 and 0.4760 and 0.6419 and 0.7515 and 0.6794 and 0.7696; in the series with Male Wistar rats (Low_Dose group, Time 0 (within 8 hours before treatment)) it was 0.6632 and 0.5179 and 0.2795 and 0.6376 and 0.3104 and 0.3524 and 0.4991 and 0.5273 and 0.2959 and 0.3191. For the same molecule, the PAG was 0.8897 and 0.6310 and 0.3915 and 1.2919 and 0.3580 and 0.9744 and 0.3039 and 0.7208 and 0.6353 and 0.4304 with Male Wistar rats (Low_Dose group, Time 8 (within 8 hours after treatment)); 0.6934 and 0.3762 and 0.4835 and 0.8446 and 0.3743 and 0.5615 and 0.3777 and 0.4892 and 0.3393 and 0.4166 with Male Wistar rats (Low_Dose group, Time 24 (within 8 to 24 hours after treatment)); 0.6453 and 0.3298 and 0.3762 and 0.7958 and 0.1879 with Male Wistar rats (Low_Dose group, Time 48 (2 days after treatment)); 1.0275 and 1.1002 and 0.4610 and 1.3440 and 0.2541 and 0.7357 and 0.5260 and 0.6162 and 0.5218 and 0.4132 in the series with Male Wistar rats (Low_Dose group, Time −16 (1 day before treatment)); 0.3418 and 0.5238 and 0.5336 and 0.7115 and 0.6105 and 0.5232 with Male Wistar rats (Low_Dose group, Time −40 (2 days before treatment)). Also, the “PAG levels of both dose groups versus time matched controls” value in the series on Male Wistar rats (rat, single oral dose 300 and 1000 mg/kg) is recorded as “comparable to their time matched controls”. Also, the “dose dependant change of PAG levels in urine” value in the series with Male Wistar rats (rat, single oral dose, both dose groups, normalized to time matched controls) is on record as “No significant dose dependant change”. In addition, the “lymphocytes %, pos.” value with lymphocytes (setting [2]) and with lymphocytes (setting [3]) was 0% in each case. In addition, the “lymphocytes positive (with lamellar bodies)” value in the series with lymphocytes (setting [2]) and in the series with lymphocytes (setting [3]) was 0 each time. For the same molecule, in the series with lymphocytes (rats, single oral dose, necropsy 48 or 168 hours after application), the “lymphocytes containing cytoplasmic lamellar bodies (finding in words)” value is “did not show any lymphocytes with lamellar bodies; also recorded: not affected; also recorded: did not show any lymphocytes containing cytoplasmic lamellar bodies”. Moreover, the pKa (in general, the pH at which an ionisable group is half protonated) in “basic pKa value” was determined as 4.07. In addition, the “potential to induce phospholipidosis” value in series [1] was “low potential”.
